The source of these data is patent publication US20240192235A1, “CERAMIDE AND SPINGOMYELIN IN NEUROLOGICAL DISORDERS” (Duke University, priority 2021, published 2024).

For series [1] the following is noted: cited from earlier work.
Series [2] concerns WT and APP/PS1 mice. The experiment in a line: Barnes Maze task. Conditions: 1 mg/kg/day for eight weeks, probe trial. Type of series: in vivo. The source says: (§1) APPswe/PS1dE9 (referred to as APP/PS1) and C57BI/6J (referred to as WT) mice were purchased from The Jackson Laboratory. The APP/PS1 is a double transgenic mouse expressing a chimeric mouse/human amyloid precursor protein (Mo/HuAPP695swe) and a mutant human presenilin 1 (PS1-dE9), both directed to CNS neurons. 50% of animals used in all experiments were male.
(§2) APP/PS1 mice and their WT littermates were used to examine fingolimod effects in vivo. Fingolimod treatment was provided in drinking water in a dark container and changed every 48 h to provide 1 mg/kg/day.
The behavioral apparatus consisted of a white flat, circular disk with 20 holes around its perimeter. One hole held the entrance to a darkened escape box not visible from the surface of the board, allowing the subject to exit the maze. The escape chamber position remained fixed during all trials. Mice learn the location of the escape hole using spatial reference points that were fixed in relation to the maze (extra-maze cues). The task consisted of one habituation trial on day 1 where the escape hole was presented to the animal, the animal remained in the escape box for 2 min. […] All sessions were recorded using Debut video software and assessed through ANY-maze software. For each trial, several parameters were recorded to assess performance. […] For the probe trial, time spent in the target quadrant and target hole were analyzed. […]

Series [3] in a line: Fingolimod plasma concentration after oral administration to WT mice (UHPLC, MS-MS). Type of series: in vivo. Conditions: both sexes, C57BL/6J, mouse, oral 1 mg/kg/day, read-out: Fingolimod levels in plasma. Here is the method: To determine if fingolimod (e.g., Gilenya®, Novartis) oral administration achieves appropriate plasma concentration, 8 WT mice at 7 months old (50% females) were treated with fingolimod at 1 mg/kg/day for 4 wks. Plasma samples were collected at two time points (2nd and 4th weeks) after treatment and analyzed by UHPLC and MS-MS. Fingolimod levels in plasma were in ng/mL: 2nd week=8.03±0.24 and 4th week=10.02±0.4.

Series [4] deals with WT and APP/PS1 mice. As to the kind of experiment: Novel object recognition (NOR) test. Particulars: 1 mg/kg/day for eight weeks. Type of series: in vivo.
Source text: as §1, §2
Mice were habituated to experimental apparatus consisting of a gray rectangular open field (60 cm×50 cm×26 cm) for 5 min in the absence of any objects for 3 days. On the third day, after the habituation trial, mice were placed in the experimental apparatus in the presence of two identical objects and allowed to explore them for 5 min. […] All sessions were recorded using Noldus Media Recorder software. Exploration of the objects was defined as the mice facing and sniffing the objects within 2 cm distance and/or touching them, assessed with ANY-maze software. The ability of the mouse to recognize the novel object (discrimination index) was determined by dividing the mean time exploring the novel object by the mean of the total time exploring the novel and familiar objects during the test session. […]

Series [5] deals with SP1 R1 (Homo sapiens, UniProt P21453). Conditions: cited from earlier work.
[6] abbreviates: fingolimod-treated APP/PS1 mice.

Chain of SP1 R1 (P21453 whole entry): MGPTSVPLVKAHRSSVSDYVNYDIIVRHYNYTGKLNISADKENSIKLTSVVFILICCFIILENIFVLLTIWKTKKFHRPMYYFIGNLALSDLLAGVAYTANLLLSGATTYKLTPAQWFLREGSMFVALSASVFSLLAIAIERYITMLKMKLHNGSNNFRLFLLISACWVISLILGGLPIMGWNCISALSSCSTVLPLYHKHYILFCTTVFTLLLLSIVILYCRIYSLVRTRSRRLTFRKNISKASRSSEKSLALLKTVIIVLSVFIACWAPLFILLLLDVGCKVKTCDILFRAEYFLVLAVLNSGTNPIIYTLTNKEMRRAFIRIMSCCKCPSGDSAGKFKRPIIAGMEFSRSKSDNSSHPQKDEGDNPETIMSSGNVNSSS

Consider `CCc1cc(/C(C)=N/OCc2ccc(C3CCCCC3)c(C(F)(F)F)c2)ccc1CN1CC(C(=O)O)C1` [Siponimod], for which the “Symbol Digit Modalities Test (SDMT) oral score” value in series [1] (compared with placebo, study months 12 and 24) is recorded as “benefit in favor of Siponimod”. Further, in series [1] (compared with placebo), the “Brief Visuospatial Memory Test-Revised” value is on record as “no statistically significant differences between groups”, the PASAT score entry is “no statistically significant differences between groups” and the “low contrast visual acuity test” value is “small benefit in favor of Siponimod”.
As for `CCCCCCCCc1ccc(CCC(N)(CO)CO)cc1` [fingolimod], the figures for the “percentage of time spent in the target quadrant” value in series [2] (setting [6]) and in series [2] (fingolimod-treated WT mice) were 54.81±9.15% and 63.46±11.51%, respectively. Moreover, the concentration at 2 weeks in series [3] (2nd week) stood at 8.03 ± 0.24 ng/mL. For the same compound, the concentration at 4 weeks in series [3] (4th week) came to 10 ± 0.4 ng/mL. For the same compound, the results for the “NOR discrimination index (NOR-DI)” value in series [4] (setting [6]) and in series [4] (fingolimod-treated WT mice) were 0.40±0.13 and 0.47±0.08, respectively.
In the case of `CC(C)Oc1ccc(-c2nc(-c3cccc4c3CC[C@@H]4NCCO)no2)cc1C#N` [Ozanimod], in series [1] (compared to IFNβ1a treatment), the “cognitive processing speed as assessed by the Symbol Digit Modalities Test” value is “improved” and the “loss of thalamic volume” value is given as “slower”.
`FC(F)(F)c1cccc(-c2noc(-c3cc(-c4ccccc4)c(C(F)(F)F)s3)n2)c1` [SEW2871]: in series [5], the “Aβ mediated behavior abnormalities” value is “improve” and the tau phosphorylation result is given as “decrease”.
